Data: ChEMBL document CHEMBL5512607, “Journey of Von Hippel-Lindau (VHL) E3 ligase in PROTACs design: From VHL ligands to VHL-based degraders” (Eur J Med Chem, 2024)

Legend:
[1] = target: T1, von Hippel-Lindau disease tumor suppressor (Homo sapiens, UniProt P40337); assay: Binding affinity to VHL (unknown origin) assessed as dissociation constant by fluorescence polarization assay
[2] = PROTAC activity at VHL/N-terminal His-tagged human p38alpha expressed in […] assessed as p38alpha degradation
[3] = tested on: von Hippel-Lindau disease tumor suppressor/Mitogen-activated protein kinase 14; assay: PROTAC activity at VHL/N-terminal His-tagged human p38alpha expressed in […] assessed as maximal degradation relative to control
[4] = target: von Hippel-Lindau disease tumor suppressor/Bromodomain-containing protein 4 (Homo sapiens, UniProt O60885+P40337); assay: PROTAC activity at human VHL/BRD4 in human HeLa cells assessed as degradation of BRD4 incubated for 24 hrs by Western blot analysis; type: cell-based
Sequence of von Hippel-Lindau disease tumor suppressor/Bromodomain-containing protein 4 (Homo sapiens, UniProt O60885+P40337) (P40337 whole entry, looked up, other chains not shown): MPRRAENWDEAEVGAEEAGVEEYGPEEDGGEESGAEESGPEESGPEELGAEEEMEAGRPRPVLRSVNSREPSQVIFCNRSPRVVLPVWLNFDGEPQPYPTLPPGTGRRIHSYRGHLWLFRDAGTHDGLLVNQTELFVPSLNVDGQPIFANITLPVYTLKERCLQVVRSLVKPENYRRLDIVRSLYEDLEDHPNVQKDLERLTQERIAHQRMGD

[5] = target: T2, von Hippel-Lindau disease tumor suppressor/Bromodomain-containing protein 2 (Homo sapiens, UniProt P25440+P40337); assay: PROTAC activity at VHL/BRD2 in human 22Rv1 cells assessed as induction of BRD2 degradation by Immunoblot analysis; type: cell-based
Target sequence in this assay (P25440 whole entry): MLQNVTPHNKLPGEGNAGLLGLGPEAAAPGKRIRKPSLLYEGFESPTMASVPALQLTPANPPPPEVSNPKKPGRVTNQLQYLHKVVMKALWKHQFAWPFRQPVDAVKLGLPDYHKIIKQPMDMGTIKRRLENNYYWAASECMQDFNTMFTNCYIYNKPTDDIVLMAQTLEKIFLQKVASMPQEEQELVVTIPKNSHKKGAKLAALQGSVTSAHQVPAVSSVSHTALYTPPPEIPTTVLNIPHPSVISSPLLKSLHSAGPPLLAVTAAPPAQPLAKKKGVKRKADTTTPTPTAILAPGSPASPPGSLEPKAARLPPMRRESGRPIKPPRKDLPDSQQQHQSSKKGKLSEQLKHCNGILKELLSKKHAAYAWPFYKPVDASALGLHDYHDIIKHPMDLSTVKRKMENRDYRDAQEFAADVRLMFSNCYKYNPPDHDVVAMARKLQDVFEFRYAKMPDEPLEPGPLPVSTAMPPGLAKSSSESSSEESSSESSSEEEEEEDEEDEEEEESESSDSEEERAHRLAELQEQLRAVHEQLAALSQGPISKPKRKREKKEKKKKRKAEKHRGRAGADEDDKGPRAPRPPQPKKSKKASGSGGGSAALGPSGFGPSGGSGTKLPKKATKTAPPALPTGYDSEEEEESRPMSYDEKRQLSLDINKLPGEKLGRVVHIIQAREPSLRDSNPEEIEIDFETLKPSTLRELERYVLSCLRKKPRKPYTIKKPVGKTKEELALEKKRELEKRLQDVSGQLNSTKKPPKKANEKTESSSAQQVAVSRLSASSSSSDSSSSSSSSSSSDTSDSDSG
Target sequence in this assay (P40337 whole entry): as the sequence (P40337 whole entry, looked up, other chains not shown) above

[6] = target: T3, von Hippel-Lindau disease tumor suppressor/Bromodomain-containing protein 3 (Homo sapiens, UniProt Q15059+P40337); assay: PROTAC activity at VHL/BRD3 in human 22Rv1 cells assessed as induction of BRD3 degradation by Immunoblot analysis; type: cell-based
Target sequence in this assay (Q15059 whole entry): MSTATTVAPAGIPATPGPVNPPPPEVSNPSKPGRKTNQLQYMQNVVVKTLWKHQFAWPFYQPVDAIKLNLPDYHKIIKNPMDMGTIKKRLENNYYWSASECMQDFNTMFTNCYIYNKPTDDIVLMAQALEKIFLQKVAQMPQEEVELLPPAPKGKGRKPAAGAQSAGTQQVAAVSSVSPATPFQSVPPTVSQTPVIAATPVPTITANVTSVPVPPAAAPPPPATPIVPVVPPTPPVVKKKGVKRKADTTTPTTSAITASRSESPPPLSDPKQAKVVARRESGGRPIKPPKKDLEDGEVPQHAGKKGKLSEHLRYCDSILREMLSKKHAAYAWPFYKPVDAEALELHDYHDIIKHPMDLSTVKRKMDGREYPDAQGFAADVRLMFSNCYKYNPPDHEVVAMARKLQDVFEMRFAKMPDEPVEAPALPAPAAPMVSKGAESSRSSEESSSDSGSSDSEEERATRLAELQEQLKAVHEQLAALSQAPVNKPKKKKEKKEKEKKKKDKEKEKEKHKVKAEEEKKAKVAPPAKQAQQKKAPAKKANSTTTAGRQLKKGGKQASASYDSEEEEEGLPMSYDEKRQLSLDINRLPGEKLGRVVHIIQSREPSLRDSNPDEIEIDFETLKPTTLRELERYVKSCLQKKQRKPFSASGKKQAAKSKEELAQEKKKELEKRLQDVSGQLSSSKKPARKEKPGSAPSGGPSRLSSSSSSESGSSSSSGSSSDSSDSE
Target sequence in this assay (P40337 whole entry): as the sequence (P40337 whole entry, looked up, other chains not shown) above

CWR22R = assay: Antiproliferative activity against human 22Rv1 cells assessed as reduction in cell viability incubated for 48 hrs by MTT assay; type: functional, cell-based; conditions: 22Rv1, 48 h
[7] = target: von Hippel-Lindau disease tumor suppressor/Bromodomain-containing protein 4; assay: PROTAC activity at VHL/BRD4 in human 22Rv1 cells assessed as induction of BRD4 degradation by Immunoblot analysis
[8] = tested on: von Hippel-Lindau disease tumor suppressor/Bromodomain-containing protein 4; assay: PROTAC activity at VHL/BRD4 in human VCaP cells assessed as maximum degradation of BRD4 by Western blot analysis relative to control
[9] = target: T4, Von Hippel-Lindau disease tumor suppressor/Elongin B/Elongin C (Homo sapiens, UniProt P40337); assay: Inhibition of VHL/Elongin B/Elogin C (unknown origin) using FAM-DEALA-Hyp-YIPD as substrate by fluorescence polarization assay; type: protein-complex assay
T4 sequence (P40337 whole entry, looked up): as the sequence (P40337 whole entry, looked up, other chains not shown) above

[10] = target: T5, von Hippel-Lindau disease tumor suppressor/Androgen receptor (Homo sapiens, UniProt P10275+P40337); assay: PROTAC activity at VHL/AR in human VCaP cells assessed as induction of AR degradation by Western blot analysis; type: cell-based
Target sequence in this assay (P10275 whole entry): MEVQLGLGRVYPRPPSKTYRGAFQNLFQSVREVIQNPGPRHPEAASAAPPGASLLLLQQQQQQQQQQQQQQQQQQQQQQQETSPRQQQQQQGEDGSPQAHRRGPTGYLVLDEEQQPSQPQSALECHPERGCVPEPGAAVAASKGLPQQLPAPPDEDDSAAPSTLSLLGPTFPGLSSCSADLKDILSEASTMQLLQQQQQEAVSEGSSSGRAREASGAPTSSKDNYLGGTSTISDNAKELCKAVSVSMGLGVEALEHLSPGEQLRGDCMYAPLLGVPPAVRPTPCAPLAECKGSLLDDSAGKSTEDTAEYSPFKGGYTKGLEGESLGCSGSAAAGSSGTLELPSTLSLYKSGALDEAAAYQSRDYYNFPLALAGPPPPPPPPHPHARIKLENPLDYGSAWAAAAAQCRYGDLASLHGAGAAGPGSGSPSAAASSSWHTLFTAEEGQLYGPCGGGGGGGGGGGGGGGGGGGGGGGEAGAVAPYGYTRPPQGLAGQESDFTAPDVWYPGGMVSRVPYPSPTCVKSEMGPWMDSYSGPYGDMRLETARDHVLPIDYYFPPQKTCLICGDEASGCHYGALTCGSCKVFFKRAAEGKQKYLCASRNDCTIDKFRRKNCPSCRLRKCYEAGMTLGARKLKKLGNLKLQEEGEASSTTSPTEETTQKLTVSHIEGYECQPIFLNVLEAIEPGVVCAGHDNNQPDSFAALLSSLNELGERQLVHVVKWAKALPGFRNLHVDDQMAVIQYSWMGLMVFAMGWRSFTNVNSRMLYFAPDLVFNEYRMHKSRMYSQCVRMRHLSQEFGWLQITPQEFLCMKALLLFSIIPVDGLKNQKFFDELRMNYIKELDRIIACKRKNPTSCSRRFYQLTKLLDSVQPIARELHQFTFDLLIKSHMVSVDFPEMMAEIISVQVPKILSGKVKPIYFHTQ
Target sequence in this assay (P40337 whole entry): as the sequence (P40337 whole entry, looked up, other chains not shown) above

[11] = target: T5, von Hippel-Lindau disease tumor suppressor/Androgen receptor; assay: PROTAC activity at VHL/AR-V7 in human 22Rv1 cells assessed as induction of AR degradation by Western blot analysis; type: cell-based
[12] = target: T1, von Hippel-Lindau disease tumor suppressor; assay: Inhibition of VHL (unknown origin)
[13] = target: T6, von Hippel-Lindau disease tumor suppressor/Estrogen receptor (Homo sapiens, UniProt P03372+P40337); assay: PROTAC activity at VHL E3 ligase/ERalpha in human MCF7 cells assessed as reduction in ERalpha protein level by Western blot analysis; type: cell-based
[14] = target: T6, von Hippel-Lindau disease tumor suppressor/Estrogen receptor; assay: PROTAC activity at VHL E3 ligase/ERalpha in human T47D cells assessed as maximal degradation of ERalpha protein level at 7.7 nM by Western blot analysis relative to control; type: cell-based
Target sequence in this assay (P03372 whole entry, looked up): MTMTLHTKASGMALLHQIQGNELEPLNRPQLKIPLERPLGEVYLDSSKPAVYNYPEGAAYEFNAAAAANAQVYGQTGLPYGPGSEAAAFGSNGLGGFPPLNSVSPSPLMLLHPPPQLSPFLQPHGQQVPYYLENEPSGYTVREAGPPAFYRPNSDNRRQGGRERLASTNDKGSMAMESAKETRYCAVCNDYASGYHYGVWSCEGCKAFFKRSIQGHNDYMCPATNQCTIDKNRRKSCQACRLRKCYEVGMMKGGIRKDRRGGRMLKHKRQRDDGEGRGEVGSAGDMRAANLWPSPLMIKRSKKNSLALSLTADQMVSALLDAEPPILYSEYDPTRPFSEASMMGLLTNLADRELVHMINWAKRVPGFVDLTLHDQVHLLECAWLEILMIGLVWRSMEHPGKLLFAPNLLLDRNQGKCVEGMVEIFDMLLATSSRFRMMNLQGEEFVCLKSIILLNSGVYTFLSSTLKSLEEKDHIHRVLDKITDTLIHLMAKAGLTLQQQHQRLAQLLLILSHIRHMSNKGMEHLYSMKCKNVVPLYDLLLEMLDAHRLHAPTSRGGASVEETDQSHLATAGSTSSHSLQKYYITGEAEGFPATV
Target sequence in this assay (P40337 whole entry, looked up): as the sequence (P40337 whole entry, looked up, other chains not shown) above

[15] = target: T1, von Hippel-Lindau disease tumor suppressor; assay: Inhibition of NanoLuc-fused VHL (unknown origin) transfected in live HEK293 cells using NanoGlo as substrate incubated for 1 hrs by tracer based NanoBRET assay; type: cell-based
[16] = target: T1, von Hippel-Lindau disease tumor suppressor; assay: Binding affinity to NanoLuc-fused VHL (unknown origin) transfected in live HEK293 cells using NanoGlo as substrate assessed as dissociation constant incubated for 1 hrs by tracer based NanoBRET assay; type: cell-based
[17] = tested on: von Hippel-Lindau disease tumor suppressor/Epidermal growth factor receptor (Homo sapiens), P00533+P40337 [L858R,T790M]; assay: PROTAC activity at VHL/EGFR L858R/T790M double mutant in human NCI-H1975 cells assessed as maximal degradation of EGFR incubated for 24 hrs by immunoblotting analysis relative to control; type: cell-based
[18] = target: T2, von Hippel-Lindau disease tumor suppressor/Bromodomain-containing protein 2; assay: PROTAC activity at human VHL/BRD2 in human HeLa cells assessed as […] incubated for 16 hrs by Western blot analysis; type: cell-based
Target sequence in this assay (P25440 whole entry): as the sequence (P25440 whole entry) above
Target sequence in this assay (P40337 whole entry): as the sequence (P40337 whole entry, looked up, other chains not shown) above

[19] = target: T3, von Hippel-Lindau disease tumor suppressor/Bromodomain-containing protein 3; assay: PROTAC activity at human VHL/BRD3 in human HeLa cells assessed as […] incubated for 16 hrs by Western blot analysis; type: cell-based
Target sequence in this assay (Q15059 whole entry): as the sequence (Q15059 whole entry) above
Target sequence in this assay (P40337 whole entry): as the sequence (P40337 whole entry, looked up, other chains not shown) above

[20] = target: T2, von Hippel-Lindau disease tumor suppressor/Bromodomain-containing protein 2; assay: PROTAC activity at human VHL/BRD2 in human HeLa cells assessed as maximum degradation of BRD2 measured after 18 hrs by Western blot analysis relative to control; type: cell-based
[21] = target: T3, von Hippel-Lindau disease tumor suppressor/Bromodomain-containing protein 3; assay: PROTAC activity at human VHL/BRD3 in human HeLa cells assessed as maximum degradation of BRD3 measured after 18 hrs by Western blot analysis relative to control; type: cell-based
[22] = PROTAC activity at human VHL/BRD4 in human HeLa cells assessed as degradation of BRD4 incubated for 16 hrs by Western blot analysis
[23] = tested on: von Hippel-Lindau disease tumor suppressor/Bromodomain-containing protein 4; assay: PROTAC activity at human VHL/BRD4 in human HeLa cells assessed as maximum degradation of BRD4 measured after 18 hrs by Western blot analysis relative to control
[24] = target: T4, Von Hippel-Lindau disease tumor suppressor/Elongin B/Elongin C; assay: Inhibition of VHL (unknown origin) (1 to 213 residues)/ElonginC/ElonginB expressed in Escherichia coli BL21 (DE3) using (FAM)-labeled HIF-1alpha peptide as substrate incubated for 2 hrs by fluorescence polarization assay
[25] = target: T5, von Hippel-Lindau disease tumor suppressor/Androgen receptor; assay: PROTAC activity at VHL/AR in human LNCaP cells assessed as induction of AR degradation by Western blot analysis; type: cell-based
Target sequence in this assay (P10275 whole entry): as the sequence (P10275 whole entry) above
Target sequence in this assay (P40337 whole entry): as the sequence (P40337 whole entry, looked up, other chains not shown) above

[26] = target: T5, von Hippel-Lindau disease tumor suppressor/Androgen receptor; assay: PROTAC activity at VHL/AR in human LNCaP cells assessed as maximum degradation of AR at 75 uM incubated for 16 hrs by Western blot analysis relative to control; type: cell-based
[27] = target: T6, von Hippel-Lindau disease tumor suppressor/Estrogen receptor; assay: PROTAC activity at VHL E3 ligase/ERalpha in human T47D cells assessed as maximal degradation of ERalpha protein level at 10.3 nM by Western blot analysis relative to control; type: cell-based
Target sequence in this assay (P03372 whole entry, looked up): as the sequence (P03372 whole entry, looked up) above
Target sequence in this assay (P40337 whole entry, looked up): as the sequence (P40337 whole entry, looked up, other chains not shown) above

T1 sequence (P40337 whole entry): as the sequence (P40337 whole entry, looked up, other chains not shown) above

Cc1ncsc1-c1ccc(CNC(=O)[C@@H]2C[C@@H](O)CN2C(=O)[C@H](NC(=O)C2(C#N)CC2)C(C)(C)C)cc1F
Kd [1]: 0.097 µM

COc1cc2c(Oc3ccc(NC(=O)C4(C(=O)Nc5ccc(F)cc5)CC4)cc3F)ccnc2cc1OCCCCOCCCCOCC(=O)N[C@@H](C(=O)N1C[C@H](O)C[C@H]1C(=O)NCc1ccc(-c2scnc2C)cc1)C(C)(C)C
DC50 [2]: 0.00716 µM
Emax [3]: 97.4%

Cc1ncsc1-c1ccc([C@H](C)NC(=O)[C@@H]2C[C@@H](O)CN2C(=O)[C@H](NC(=O)C2(F)CC2)C(C)(C)C)cc1F
Kd [1]: 0.073 µM

Cc1ncsc1-c1ccc([C@H](C)NC(=O)[C@@H]2C[C@@H](O)CN2C(=O)[C@H](NC(=O)C2(C#N)CC2)C(C)(C)C)cc1F
Kd [1]: 0.186 µM

CC(=O)N[C@H](C(=O)N1C[C@H](O)[C@H](F)[C@H]1C(=O)Nc1ccc(-c2scnc2C)cc1)C(C)(C)C
DC50 [4]: 0.001 µM

Cc1ncsc1-c1ccc([C@H](C)NC(=O)[C@@H]2C[C@@H](O)CN2C(=O)[C@@H](NC(=O)COCCOCCOCCNC(=O)C[C@@H]2N=C(c3ccc(Cl)cc3)c3c(sc(C)c3C)-n3c(C)nnc32)C(C)(C)C)cc1
DC50 [5]: < 0.005 µM
DC50 [6]: < 0.005 µM
EC50 (CWR22R): 0.09 µM
DC50 [7]: < 0.005 µM
Emax [8]: > 99%

Cc1cc(CC(=O)N2C[C@H](O)C[C@H]2C(=O)NCc2ccc(-c3ocnc3C)cc2)on1
IC50 [9]: 12.7 µM

Cc1ncsc1-c1ccc([C@@H](C)NC(=O)[C@H]2C[C@H](O)CN2C(=O)[C@H](NC(=O)CCCCCNC(=O)COc2ccccc2-c2csc(N3CCOCC3)n2)C(C)(C)C)cc1
DC50 [10]: 2 µM
DC50 [11]: 0.37 µM

Cc1cc(CC(=O)N2C[C@H](O)C[C@H]2C(=O)NCc2cccc(Cl)c2)on1
IC50 [12]: 0.117 µM

Cc1ncsc1-c1ccc([C@H](C)NC(=O)[C@@H]2C[C@@H](O)CN2C(=O)[C@@H](NC(=O)CCCCOc2ccc(/C=C/NC(=O)c3ccc(C(=O)c4c(-c5ccc(O)cc5)sc5cc(O)ccc45)cc3)cc2)C(C)(C)C)cc1
DC50 [13]: 0.01 µM
Emax [14]: > 95%

COc1cc2c(Oc3ccc(NC(=O)C4(C(=O)Nc5ccc(F)cc5)CC4)cc3F)ccnc2cc1OCCOCCOCCOc1cc(-c2scnc2C)ccc1CNC(=O)[C@@H]1C[C@@H](O)CC1C(=O)[C@H](C(C)C)C1Cc2ccccc2C1=O (stereo partly specified)
DC50 [2]: 0.0662 µM
Emax [3]: 99.4%

COc1cc(-c2scnc2C)cc(OC)c1CNC(=O)[C@@H]1C[C@@H](O)CN1C(=O)[C@H](NC(=O)C1(C#N)CC1)C(C)(C)C
Kd [1]: 6.24 µM

CC(=O)N[C@H](C(=O)N1C[C@H](O)C[C@H]1C(=O)N[C@@H](C)c1ccc(-c2scnc2C)cc1)C(C)(C)C
IC50 [15]: 0.13 µM
Kd [16]: 0.063 µM

CC(=O)N[C@H](C(=O)N1C[C@H](O)[C@@H](F)[C@H]1C(=O)Nc1ccc(-c2scnc2C)cc1)C(C)(C)C
DC50 [4]: 0.01 µM

Cc1ncsc1-c1ccc(CNC(=O)[C@H]2C[C@H](O)CN2C(=O)[C@H](NC(=O)CCCCCOCCCCOCCCCOc2cc3ncnc(Nc4ccc(F)c(Cl)c4)c3cc2NC(=O)/C=C/CN(C)C)C(C)(C)C)cc1
Emax [17]: 79.1%

Cc1cc(-c2scnc2C)ccc1CNC(=O)[C@@H]1C[C@@H](O)CN1C(=O)[C@H](NC(=O)C1(C#N)CC1)C(C)(C)C
Kd [1]: 0.149 µM

Cc1ncsc1-c1cc2c(cc1F)[C@@H](NC(=O)[C@@H]1C[C@@H](O)CN1C(=O)[C@H](NC(=O)C1(F)CC1)C(C)(C)C)CCCC2
Kd [1]: 1.04 µM

CC(=O)N[C@H](C(=O)N1C[C@H](O)C[C@H]1C(=O)N[C@H](C)c1ccc(-c2scnc2C)cc1)C(C)(C)C
IC50 [15]: 26 µM

Cc1cc(-c2scnc2C)ccc1[C@H](C)NC(=O)[C@@H]1C[C@@H](O)CN1C(=O)[C@H](NC(=O)C1(C#N)CC1)C(C)(C)C
Kd [1]: 0.086 µM

Cc1ncsc1-c1ccc([C@H](C)NC(=O)[C@H]2C[C@H](O)CN2C(=O)[C@H](NC(=O)COCCOCCOCCNC(=O)C[C@@H]2N=C(c3ccc(Cl)cc3)c3c(sc(C)c3C)-n3c(C)nnc32)C(C)(C)C)cc1
DC50 [18]: 0.04 µM
DC50 [19]: 0.1 µM
Emax [20]: 98%
Emax [21]: 100%
DC50 [22]: 0.003 µM
Emax [23]: 100%

COc1cccc(/C=C2\Oc3cc(OCC(=O)N4CC(O)C[C@H]4C(=O)O)ccc3C2=O)c1 (stereo partly specified)
IC50 [24]: 2.29 µM

Cc1cc([C@H](C(=O)N2C[C@H](S(=O)(=O)F)C[C@H]2C(=O)N[C@@H](CC(=O)N2CCC(C#Cc3ccc(C(=O)N[C@H]4C(C)(C)[C@H](Oc5ccc(C#N)c(C(F)(F)F)c5)C4(C)C)cc3)CC2)c2ccc(-c3scnc3C)cc2)C(C)C)on1
DC50 [25]: 0.527 µM
Emax [26]: 54%

O=C(NCc1ccc(Cl)cc1)[C@@H]1C[C@@H](O)CN1C(=O)c1ccccc1Cl
IC50 [9]: 52 µM

Cc1cc(-c2scnc2C)c(C)cc1CNC(=O)[C@@H]1C[C@@H](O)CN1C(=O)[C@H](NC(=O)C1(C#N)CC1)C(C)(C)C
Kd [1]: 0.528 µM

COc1cc(-c2scnc2C)c(F)cc1CNC(=O)[C@@H]1C[C@@H](O)CN1C(=O)[C@H](NC(=O)C1(F)CC1)C(C)(C)C
Kd [1]: 0.134 µM

Cc1cc(-c2scnc2C)ccc1[C@H](C)NC(=O)[C@@H]1C[C@@H](O)CN1C(=O)[C@H](NC(=O)C1(F)CC1)C(C)(C)C
Kd [1]: 0.037 µM

Cc1ncsc1-c1ccc(CNC(=O)[C@@H]2C[C@@H](O)CN2C(=O)c2cccc(N)c2C)cc1
IC50 [24]: 10.1 µM

Cc1cc([C@H](C(=O)N2C[C@H](S(=O)(=O)F)C[C@H]2C(=O)N[C@@H](CC(=O)N2CCC(C#Cc3ccc(C(=O)N[C@H]4C(C)(C)[C@H](Oc5ccc(C#N)c(Cl)c5)C4(C)C)cc3)CC2)c2ccc(-c3scnc3C)cc2)C(C)C)on1
DC50 [25]: 0.212 µM
Emax [26]: 59%

Cc1ncsc1-c1ccc([C@H](C)NC(=O)[C@@H]2C[C@@H](O)CN2C(=O)[C@@H](NC(=O)CCCCOc2ccc(CCNC(=O)c3ccc(C(=O)c4c(-c5ccc(O)cc5)sc5cc(O)ccc45)cc3)cc2)C(C)(C)C)cc1
Emax [14]: 98%
Emax [27]: 98%
